Results on 20 compounds are retold here after ChEMBL document CHEMBL4396974, “Synthesis and evaluation of a novel quinoline-triazole analogs for antitubercular properties via molecular hybridization approach” (Bioorg Med Chem Lett, 2019).

Common to all, as to details: read-out: INH
Data set [1] in a line: Cytotoxicity against human PANC1 cells at 10 uM measured after 48 hrs by sulforhodamine B assay relative to control. The data set is classed as cell-based, PANC-1.
Data set [2] in a line: Cytotoxicity against human HeLa cells at 10 uM measured after 48 hrs by sulforhodamine B assay relative to control. The data set is classed as cell-based.
The nature of data set [3]: Cytotoxicity against human PC3 cells at 10 uM measured after 48 hrs by sulforhodamine B assay relative to control. It counts as cell-based, PC-3.
Data set [4] in a line: Cytotoxicity against human HEK293 cells at 10 uM measured after 48 hrs by sulforhodamine B assay relative to control. The data set is classed as cell-based.
Data set [5] can be described thus: Cytotoxicity against human SKOV3 cells at 10 uM measured after 48 hrs by sulforhodamine B assay relative to control. It counts as cell-based, SK-OV-3.
Data set [6] in a line: Cytotoxicity against human PANC1 cells at 2 uM measured after 48 hrs by sulforhodamine B assay relative to control. The data set is classed as cell-based, PANC-1.
A short description of data set [7]: Cytotoxicity against human PC3 cells at 2 uM measured after 48 hrs by sulforhodamine B assay relative to control. The data set is classed as cell-based, PC-3.
Data set [8] in a line: Cytotoxicity against human HEK293 cells at 2 uM measured after 48 hrs by sulforhodamine B assay relative to control. It counts as cell-based.
A short description of data set [9]: Cytotoxicity against human SKOV3 cells at 2 uM measured after 48 hrs by sulforhodamine B assay relative to control. The data set is classed as cell-based, SK-OV-3.
Data set [10] is described as follows: Cytotoxicity against human HeLa cells at 2 uM measured after 48 hrs by sulforhodamine B assay relative to control. The data set is classed as cell-based.

For the compound `COc1nc2ccc(Br)cc2cc1C(c1ccccc1)n1cc(CCCO)nn1` (stereo not given), the cytotoxicity at 48 h, 10 µM worked out at 25.5% in data set [1]; 11.3% in [2]; 14.7% in data set [3]; 27.4% in [4]; 13.8% in data set [5].
Taken in the same sequence, the figures for `COc1nc2ccc(Br)cc2cc1C(c1ccccc1)n1cc(CO)nn1` (stereo not given) were 15%, 0.25%, 4.65%, 11.5% and 3.23%.
Consider `COc1nc2ccc(Br)cc2cc1C(c1ccccc1)n1cc(C2CC2)nn1` (stereo not given), for which the cytotoxicity at 48 h, 10 µM in data set [1] is 21.8%; in data set [2] it was -5.84%; in data set [3] it was 22.6%; in [4], 8.22%; in [5] it was 3.52%.
As to `COc1nc2ccc(Br)cc2cc1C(c1ccccc1)n1cc(-c2ccccc2F)nn1` (stereo not given), the cytotoxicity at 48 h, 10 µM in data set [1] was found to be 14.7%; in data set [2] it was 14.1%; in data set [3], 13.4%; in data set [4], 3.97%; in [5] it was 7.33%.
Taken in the same sequence, the figures for `COc1nc2ccc(Br)cc2cc1C(c1ccccc1)n1cc(-c2ccccc2)nn1` (stereo not given) were 30.1%, 13.9%, 5.97%, 8.25% and 13.7%.
Taken in the same sequence, the figures for `CCCCCc1cn(C(c2ccccc2)c2cc3cc(Br)ccc3nc2OC)nn1` (stereo not given) were 5.07%, -9.81%, 11.4%, -2% and 10.5%.
Consider `CCCCCCCCc1cn(C(c2ccccc2)c2cc3cc(Br)ccc3nc2OC)nn1` (stereo not given), for which the cytotoxicity at 48 h, 10 µM in data set [1] was found to be 12.1%; in [2] it was 0.1%; in data set [3], 2.27%; in [4] it was 14.6%; in data set [5], 2.06%.
For the compound `COc1nc2ccc(Br)cc2cc1C(c1ccccc1)n1cc(-c2ccccc2C(F)(F)F)nn1` (stereo not given), the cytotoxicity at 48 h, 10 µM in data set [1] is 11.4%; in data set [2] it was -1.3%; in data set [3] it was 17.4%; in [4], 14.3%; in data set [5], 9.55%.
Taken in the same sequence, the figures for `CCCCCCCc1cn(C(c2ccccc2)c2cc3cc(Br)ccc3nc2OC)nn1` (stereo not given) were 16.6%, 9.7%, 4.42%, 0.17% and 10.5%.
As to `COc1nc2ccc(Br)cc2cc1C(c1ccccc1)n1cc(CCO)nn1` (stereo not given), the cytotoxicity at 48 h, 10 µM in [1] is 19.8%; in data set [2], 0.85%; in data set [3] it was 15.5%; in [4] it was 4.54%; in data set [5], 8.46%.
Taken in the same sequence, the figures for `CCCCc1cn(C(c2ccccc2)c2cc3cc(Br)ccc3nc2OC)nn1` (stereo not given) were 5.46%, -2.87%, 5.54%, -3.47% and 11.1%.
Taken in the same sequence, the figures for `CCOC(=O)c1cn(C(c2ccccc2)c2cc3cc(Br)ccc3nc2OC)nn1` (stereo not given) were 15.4%, -3.67%, 16.1%, 2% and 2.01%.
For the compound `CCCc1cn(C(c2ccccc2)c2cc3cc(Br)ccc3nc2OC)nn1` (stereo not given), the cytotoxicity at 48 h, 10 µM in [1] was 11.3%; in data set [2], -2.25%; in [3], 8.3%; in data set [4], 0.85%; in data set [5] it was 11.2%.
Taken in the same sequence, the figures for `COc1nc2ccc(Br)cc2cc1C(c1ccccc1)n1cc(-c2ccc(OC(F)(F)F)cc2)nn1` (stereo not given) were 11.7%, -2.24%, 21.6%, 5.8% and 14.8%.
With `COc1nc2ccc(Br)cc2cc1C(c1ccccc1)n1cc(-c2ccc(Br)cc2)nn1` (stereo not given), the cytotoxicity at 48 h, 10 µM came out at 10.4% in data set [1]; 6.92% in data set [2]; 7.43% in [3]; 6.28% in data set [4]; 13.4% in [5].
Taken in the same sequence, the figures for `COc1nc2ccc(Br)cc2cc1C(c1ccccc1)n1cc(CCCCCO)nn1` (stereo not given) were 19.6%, 1.08%, 12.9%, 7.96% and 8.69%.
On to `COc1cccc2c1C(=O)c1c(O)c3c(c(O)c1C2=O)C[C@@](O)(C(=O)CO)C[C@@H]3O[C@H]1C[C@H](N)[C@H](O)[C@H](C)O1` [DOXORUBICIN], for which the cytotoxicity at 48 h, 2 µM is 96.1% in [6]; 86.7% in [7]; 75.6% in [8]; 83.3% in [9]; 74.1% in data set [10].
For `CCCCCCc1cn(C(c2ccccc2)c2cc3cc(Br)ccc3nc2OC)nn1` (stereo not given), the cytotoxicity at 48 h, 10 µM was 6.08% in [1]; -0.97% in data set [2]; 2.32% in [3]; -3.17% in data set [4]; 7.17% in data set [5].
Taken in the same sequence, the figures for `COc1nc2ccc(Br)cc2cc1C(c1ccccc1)n1cc(-c2cccc(F)c2)nn1` (stereo not given) were 15.5%, 9.04%, 14.6%, 6.84% and 12.7%.
Taken in the same sequence, the figures for `COc1nc2ccc(Br)cc2cc1C(c1ccccc1)n1cc(-c2ccc(F)cc2)nn1` (stereo not given) were 14.9%, 4.27%, 16.4%, 4.04% and 14.3%.
